The assay concerns Micrococcus luteus. In words: Potency (specific antibacterial activity): agar plate inhibition zones compared with Bacitracin Zinc standard. It counts as cell-based. The note with it: calculated from potency of sample A and its 93% area-% content. The method, then: Potency is the in vitro antibacterial activity. It can be measurered and expressed as IU/mg. The antibacterial activity of samples A, B′ and C′ (see Table 1) was measured. The specific antibacterial activity (listed here as IU/mg), often termed potency, was measured by comparing the antibacterial activity of the unknown sample with known (standard) samples. Specifically, a Bacitracin Zinc standard was dissolved and diluted to 2.0, 1.0, and 0.5 IU bacitracin/ml in 0.07 M phosphate buffer pH 6.0. These three standard solutions were added to agar plates inoculated with the test organism, Micrococcus luteus. The unknown samples were dissolved, diluted and added to the same plate as the standards. After 16-24 hours at 32-37 C, the inhibition zones were measured and the unknown samples were compared to the standards.

Where a SMILES comes first, the peptide text is derived from it. Bridges are numbered along the chain shown (N, C = ends). [ ]: non-standard residue; d: D form. The star is where a group is joined. X2 = CCC(C)C(N)C1=NC(C(=O)*)CS1; Orn = NCCC[CH](N)C(=O)O

On to `CCC(C)C(N)C1=NC(C(=O)NC(CC(C)C)C(=O)NC(CCC(=O)O)C(=O)NC(C(=O)NC2CCCCNC(=O)C(CC(N)=O)NC(=O)C(CC(=O)O)NC(=O)C(Cc3c[nH]cn3)NC(=O)C(Cc3ccccc3)NC(=O)C(C(C)CC)NC(=O)C(CCCN)NC2=O)C(C)CC)CS1` (stereo not shown) [Bacitracin A] (X2-LEIK[Orn]IFHDN; lactam 4-C; configuration not given here), for which the “specific antibacterial activity of Bacitracin A, calculated from sample A (93% Bacitracin A by HPLC at 254 nm)” value is 77.4 IU/mg.

Values taken from US8410044B2, “Bacitracin antibiotics” (Xellia Pharmaceuticals Aps, priority 2009, dated 2013).
